Experiments:
[1] = Acute toxicity, DL50 i.p.; type: in vivo, souris; conditions: mouse, in vivo, ip, read-out: DL50 (ip)en toxicité aigue
Description: (§1) La valeur DL50 i.p. pour tous ces derives a été trouvée voisine de 800 mg/kg et la valeur DL 50 i.v. est supérieure a 5 g/kg.

souris [2] = assay: General pharmacological profile: spontaneous motor activity; type: in vivo
Excerpt: (§2) Activite motrice spontanée: MODIGH, K., Central and peripheral effects of 5-hydroxytryptophan on motor activity in mice. Psychopharmacologia (Berlin), 23, 48, 1972. Cadence respiratoire: […], S., and VALZELLI, L. Serotonin and cardiovascular system, Chapter 9, in "Serotonin", Elsevier Publ. Co. Amsterdam 1965.

souris [3] = assay: General pharmacological profile: respiratory rate; type: in vivo; conditions: for Cadence respira-toire: souris; for Cadence respiratoire: 100 mg/kg i.p., 15 min after administration, Tableau 3
Excerpt: as §2
COHEN, Y. and BLANCHARD, P. Influence de la chelation du calcium sur les effets tensionnels de la sérotonine chez le chien. J. Physiol., 52, 569,1960.
BRAUNWALD, E. Control of myocardial oxygen consumption: Physiologic and clinical considerations. Am. J. Cardiol., 27 (4), 416,1971.

souris [4] = assay: Anticonvulsant activity, MES; type: in vivo; conditions: for Activité anticonvulsivante 1. MES: 100 mg/kg i.p., 15 min after administration, Tableau 3
Excerpt: Activite anticonvulsivante (MES): % de protection Temps de sommeil au pentobarbital: WYATT, R.J., ZARKONE, V. […], K., DEMENT, W.C., SMYDER, F. and SJOERDSMA, A., Effects of 5-Hydroxytryptophan on the sleep of normal human subjects. Electroencephaly and Clinical Neurophysiology 30, 5051971.

souris [5] = assay: Pentobarbital sleeping time; type: in vivo
Description: (§4) Les mesures ont été faites a 15, 30 et 60 minutes après I'administration par voie intrapéritonéale (i.p.) a des souris.

souris [6] = assay: Vertical pole climbing test; type: in vivo; conditions: 100 mg/kg i.p., 15 min after administration
souris [7] = assay: Anticonvulsant activity, pentylenetetrazol; type: in vivo; conditions: 100 mg/kg i.p., 15 min after administration
souris [8] = assay: Morphine test (antagonism); type: in vivo; conditions: 100 mg/kg i.p., 15 min after administration
souris [9] = assay: Anti-stress activity: swimming endurance; type: in vivo; conditions: 100 mg/kg i.p., souris observed up to 540 min; témoins 385 ± 31 min
Description: Au tableau 4, la lettre N designe le nombre d'animaux (souris). Un astérisque indique une activite importante. Deux astérisques indiquent une possibilité d'activité positive. Dans I'essai d'endurance a la nage, on a observe les souris jusqu'à 540 minutes, la durée moyenne de nage pour les souris témoins étant de 385 ± 31 minutes.
(N) - représente le nombre d'animaux * - activité importante ** - activite positive possible Pour I'endurance a la nage, les souris ont été observées jusqu'à 540 min, la durée moyenne de nage chez les souris témoins était de 385 + 31 min. *** - La leucocytose a été induite par 0,1 ml de lait (sous-cutanée) avant traitement avec le medicament.

Tension sanguine = assay: Cardiovascular activity: blood pressure; type: in vivo
Excerpt: (§3) Le protocole experimental était celui décrit dans "Sugar Derivatives of Indolamines. part V: Cardiovascular Effects and "Anti-stress" Activity of Desoxyfructose Derivative of Serotonin and 5-Metho-xy- tryptamin", L. Mester, M. Mester, K.P. Bhargava, C. Labrid, G. Dureng and M. Cheucle, THROMBOSIS […], 15,245,1979.

Rythme cardiaque = assay: Cardiovascular activity: heart rate; type: in vivo
Excerpt: as §3

[10] = system: réponse à l'obstruction de la carotide; assay: Cardiovascular activity: response to carotid occlusion (CO); type: in vivo
Excerpt: as §3

souris [11] = assay: Tremor score in mice pretreated with a MAO inhibitor (Harmaline); type: in vivo; conditions: 75 mg/kg S.C., 1 h after Harmaline 25 mg/kg P.O., 5 souris, scored 5 to 75 min
Description: Les conditions expérimentales étaient les suivantes:
Chez des souris prétraitées par un inhibiteur de la MAO (Harmaline 25 mg/kg/ P.O.), I'injection de 5HTP (1 heure après l'IMAO) entraîne l'apparition de tremblements plus ou moins généralisés, accompagnés ou non d'hyperactivité motrice et qui sont dus a I'accumulation de sérotonine non dégradée au niveau des récepteurs post-synaptiques cérébraux. On peut établir pour chaque souris une cotation chiffrée suivant l'intensité des symptômes observes au cours du temps (cotation toutes les 5 min. entre la 5ème et la 45ème min. après I'injection de 5 HTP puis toutes les 15 min. jusqu'à la 75ème min.).
On additionne en une score total tous les chiffres obtenus aux différents temps sur des lots de 5 ou 10 souris.
Les actions du 5 HTP ont été comparées a celles du DF-5HTP.

souris [12] = assay: Catatonia; conditions: 100 mg/kg i.p., 15 min after administration
souris [13] = assay: Rotarod test; conditions: 100 mg/kg i.p.; témoin 11,3 ± 3,1
Description: as §4

souris [14] = assay: Inclined screen test (neurotoxicity); conditions: 100 mg/kg i.p., 15 min after administration, Tableau 3
Description: as §4

souris [15] = assay: General pharmacological profile: defecation; conditions: 100 mg/kg i.p., 15 min after administration, Tableau 3
Description: as §4

souris [16] = assay: General pharmacological profile: hypersensitivity to noise; conditions: 100 mg/kg i.p., 15 min after administration, Tableau 3
Description: as §4

M. Leprae = assay: Incorporation of 3H-DOPA by M. leprae in vitro; type: cell-based, Mycobacterium leprae; conditions: 6 h
Excerpt: Le tableau 6 rassemble des résultats d'essai concernant l'activité du DF-5HTP sur l'incorporation de la DOPA dans les Mycobacteries de la lèpre. Le protocole experimental était celui décrit dans JAYARAMAN, P., […], P.R., MESTER, M. and MESTER, L. Inhibition of the incorporation of ^3H-DOPA in Mycobacterium leprae by Desoxyfructo-serotonin. Biochem. Pharm., 29, 2526,1980.
On a inoculé 5 x 10^6 M. leprae par tube; le milieu était un tampon phosphate à pH 6,8. La quantité de 3H-DOPA était de 1 µ. Ci/tube.
Protocole: Chaque tube de 0,5 ml est inocule de 5 x 10^6 M. leprae et de 1 µ Ci de ^3H-DOPA. Après 6 heures, I'incorporation de la DOPA radioactive est enregistrée en DPM selon la technique utilisée dans JAYARAMAN, P., […], P.R., MESTER, M. and MESTER, L. Inhibition of the Incorporation of ^3H-DOPA in Mycobacterium leprae by Desoxyfructo-serotonin. Biochem. Pharm., 29,2526,1980.

[17] = In vivo metabolism of radioactive compounds, hamster plasma; conditions: au bout de 4 heures, figure 2
Excerpt: La mesure de la radioactivite des diverses fractions isolées du sang des hamsters traités permet de caractériser les metabolites, lesquels sont ainsi isolés et identifies par électrophorèse. Les metabolites acides HIAA et IAA sont séparés ensemble.
On a porté le temps en abscisses (exprimé en heures) et en ordonnées le pourcentage du compose caractérisé dans le plasma.

[18] = system: cellules des neuroblastomes; assay: Inhibition of serotonin incorporation into neuroblastoma cells in vitro; type: cell-based
souris [19] = assay: Acute toxicity, DL50 i.p.; type: in vivo
Description: as §1

souris [20] = assay: Motor activity (Photactametre); type: in vivo; conditions: 100 mg/kg i.p., compared with 5HTP used as control
[21] = system: 5-HT (dans tout le cerveau); assay: Amount of serotonin (5-HT) in whole brain, spectrophotofluorometric; type: in vivo, souris; conditions: 160 mg/kg i.p., 15 min.; Solution Saline 60,0; mean of 4 souris
Excerpt: Les quantités de sérotonine ont été estimees par une méthode spectrophotofluorométrique, telle que décrite par Solomon et al. Biochem. Pharmacology 14, 831 (1965). Les résultats de ces essais sont rassemblés dans le Tableau 10 ci-après.
• * Chaque valeur représente la moyenne de quatre animaux d'experience (souris) • ** La concentration de 5-HT est exprimée par gramme de tissu frais (cerveau).

[22] = 100 mg/kg i.p., 15 min after administration, Tableau 3
[23] = 100 mg/kg (ip), 15 min, Tableau 2
[24] = 10 mg par voie cérébroventriculaire

N[C@@H](Cc1c[nH]c2ccc(O)cc12)C(=O)O [5-HTP, 5-hydroxytryptophane, reference compound]
LD50 [1]: > 800 mg/kg
Activité motrice spontanée (souris [2]; 50 mg/kg (ip), souris): sans effet
Activité motrice spontanée (souris [2]; 100 mg/kg (ip), souris, Tableau 2): d'abord légère augmentation et ensuite dimi-nution légère
Activité motrice spontanée (souris [2]; [22]): Légère augmentation
Cadence respira-toire (souris [3]; 50 mg/kg (ip)): sans effet
Cadence respira-toire (souris [3]; 100 mg/kg (ip), Tableau 2): augmentation
Cadence respiratoire (souris [3]): Légère augmentation
Activité anticon-vulsivante MES % protection (souris [4]; 50 mg/kg (ip), 15 min): 20%
Activité anticon-vulsivante MES % protection (souris [4]; 50 mg/kg (ip), 30 min): 25%
Activité anticon-vulsivante MES % protection (souris [4]; 50 mg/kg (ip), 60 min): 25%
Activité anticon-vulsivante MES % protection (souris [4]; [23]): 50%
Activité anticon-vulsivante MES % protection (souris [4]; 100 mg/kg (ip), 30 min): 33,3%
Activité anticonvulsivante 1. MES (souris [4]): 60%
Temps de sommeil au pentobarbital % du témoin (témoin =100) (souris [5]; 50 mg/kg (ip), 15 min): 285 % du témoin
Temps de sommeil au pentobarbital % du témoin (témoin =100) (souris [5]; 50 mg/kg (ip), 30 min): 222 % du témoin
Temps de sommeil au pentobarbital % du témoin (témoin =100) (souris [5]; 50 mg/kg (ip), 60 min): 136 % du témoin
Temps de sommeil au pentobarbital % du témoin (témoin =100) (souris [5]; [23]): 295 % du témoin
Temps de sommeil au pentobarbital % du témoin (témoin =100) (souris [5]; 100 mg/kg (ip), 30 min): 276 % du témoin
Temps de sommeil au pentobarbital % du témoin (témoin =100) (souris [5]; 100 mg/kg (ip), 60 min): 279 % du témoin
Essai de grimpé sur un baton vertical (souris [6]): Sans effet
Activité anticonvulsivante 2.Pentylènetetrazol (souris [7]): 0%
Essai à la morphine (souris [8]): Négatif (pas d'antagonisme)
Endurance à la nage % d'augmentation (souris [9]): 40^** %
Tension sanguine Durée (Tension sanguine; [24]): 240 min
Tension sanguine Mesure à (Tension sanguine; [24]): 1 min
Tension sanguine Pic (Tension sanguine; [24]): 15 min
Tension sanguine Durée (Tension sanguine; 100 mg par voie intraveineuse): 60 min
Tension sanguine Mesure à (Tension sanguine; 100 mg par voie intraveineuse): 1 min
Tension sanguine Pic (Tension sanguine; 100 mg par voie intraveineuse): 10 min
Rythme cardiaque Durée (min) (Rythme cardiaque; [24]): non mani-fes-tae jus-qu'à 240
Rythme cardiaque Mesure à (Rythme cardiaque; [24]): 5 min
Rythme cardiaque Pic (Rythme cardiaque; [24]): 30 min
Rythme cardiaque Durée (Rythme cardiaque; 100 mg par voie intraveineuse): 60 min
Rythme cardiaque Mesure à (Rythme cardiaque; 100 mg par voie intraveineuse): 1 min
Rythme cardiaque Pic (Rythme cardiaque; 100 mg par voie intraveineuse): 30 min
REPONSE CO Durée [10, 24]: 105 min
REPONSE CO Mesure à [10, 24]: 1 min
REPONSE CO Pic [10, 24]: 10 min
REPONSE CO Durée ([10]; 100 mg par voie intraveineuse): 45 min
REPONSE CO Mesure à ([10]; 100 mg par voie intraveineuse): 5 min
REPONSE CO Pic ([10]; 100 mg par voie intraveineuse): 15 min
Score total (tremblements) (souris [11]): 146
Catatonie (souris [12]): non
Performance à l'essai Rotarod Moyenne (Sec) (souris [13]): 66,2 ± 6,4 (30) Sec
Tamis incliné (souris [14]): Pas d'effet neurotoxique
Défécation (souris [15]): oui
Hypersensibilité au bruit (souris [16]): oui

désoxyfructo-sérotonine [DF-5HT, reference compound]
incorporation de 3H-DOPA par M. Leprae (M. Leprae; 1 µg/ml, Armadillo M.Leprae N°2275/5, témoins 5977): 2431 DPM
incorporation de 3H-DOPA par M. Leprae (M. Leprae; 1 µg/ml, Armadillo M.Leprae N°2275/5 Tués par la chaleur, témoins 915): 410 DPM
incorporation de 3H-DOPA par M. Leprae (M. Leprae; 1 µg/ml, Armadillo M.Leprae N°2457/103, témoins 4215): 2575 DPM
incorporation de 3H-DOPA par M. Leprae (M. Leprae; 1 µg/ml, Armadillo M.Leprae N°2457/103 Tués par la chaleur, témoins 2855): 2110 DPM
incorporation de 3H-DOPA par M. Leprae (M. Leprae; 5 µg/ml, Armadillo M.Leprae N°2275/5, témoins 5977): 2264 DPM
incorporation de 3H-DOPA par M. Leprae (M. Leprae; 5 µg/ml, Armadillo M.Leprae N°2275/5 Tués par la chaleur, témoins 915): 566 DPM
incorporation de 3H-DOPA par M. Leprae (M. Leprae; 5 µg/ml, Armadillo M.Leprae N°2457/103, témoins 4215): 1485 DPM
incorporation de 3H-DOPA par M. Leprae (M. Leprae; 5 µg/ml, Armadillo M.Leprae N°2457/103 Tués par la chaleur, témoins 2855): 1640 DPM
niveau du compose non transformé dans le plasma [17]: insignifiante
% Inhibition à 0°C de l'incorporation de la sérotonine dans les cellules nerveuses ([18]; 0°C): 95%
% Inhibition à 25°C de l'incorporation de la sérotonine dans les cellules nerveuses ([18]; 10-^4 Mol, 25°C): 90%

désoxyribulo-5-hydroxytryptophane [Désoxy ribulo-5HTP]
DL50 (ip)en toxicité aigue (souris [19]): > 800 mg/kg
Activité motrice spontanée (souris [2]; [22]): sans effet
Cadence respiratoire (souris [3]): sans effet
Activité anticonvulsivante 1. MES (souris [4]): 20%
Temps de sommeil au pentobarbital % du témoin (Témoin à 100) (souris [5]; [22]): 309,2 % du témoin
Essai de grimpé sur un baton vertical (souris [6]): Sans effet
Activité motrice (Photactametre) (souris [20]): Augmentation pendant les 40 premières min. et ensuite diminution
Activité anticonvulsivante 2.Pentylènetetrazol (souris [7]): 0%
Essai à la morphine (souris [8]): Négatif (pas d'antagonisme)
Quantités de 5-HT (dans tout le cerveau) [21]: 92,5

From patent publication EP0151577B1 (priority 1983, dated 1984)
